According to patent US12486302B2, “Somatostatin receptor antagonist compounds and methods of using the same” (CDRD VENTURES INC., priority 2016, dated 2025):
*1 amine or outer side, *2 acyl side, *3 side chain or, on linkers, in order; H or OH if unused. Where a SMILES comes first, the peptide text is derived from it. Bridges are numbered along the chain shown (N, C = ends). Triazole bridges read from a SMILES are 1,4-linked. Side-chain parts run from the residue outwards. [ ]: non-standard residue; d: D form. The star is where a group is joined. ξ: configuration not given here. dPhe(4-CONH2) = NC(=O)c1ccc(C[C@@H](N)C(=O)O)cc1; dPhe(4-CN) = N#Cc1ccc(C[C@@H](N)C(=O)O)cc1; dPhe(4-NH2) = Nc1ccc(C[C@@H](N)C(=O)O)cc1; Phe(4-Cl) = N[C@@H](Cc1ccc(Cl)cc1)C(=O)O; dDap(N3) = [N-]=[N+]=NC[C@@H](N)C(=O)O; Dap(N3) = [N-]=[N+]=NC[C@H](N)C(=O)O; NMeY = CN[C@@H](Cc1ccc(O)cc1)C(=O)O; NMeT = CN[C@H](C(=O)O)[C@@H](C)O; Lys(Me) = CNCCCC[C@H](N)C(=O)O; Thr(3ξ) = CC(O)[C@H](N)C(=O)O; NMeK = CN[C@@H](CCCCN)C(=O)O; dPra = C#CC[C@@H](N)C(=O)O; MeOSuc = COC(=O)CCC(=O)*; Pra = C#CC[C@H](N)C(=O)O; dDap = NC[C@@H](N)C(=O)O; Dap = NC[C@H](N)C(=O)O; CO = O=C([*:1])[*:2]; NHPh = c1ccc(N*)cc1

Target: somatostatin type 2 (SSTR2) receptors (Homo sapiens, UniProt P30874)
Sequence (P30874 whole entry): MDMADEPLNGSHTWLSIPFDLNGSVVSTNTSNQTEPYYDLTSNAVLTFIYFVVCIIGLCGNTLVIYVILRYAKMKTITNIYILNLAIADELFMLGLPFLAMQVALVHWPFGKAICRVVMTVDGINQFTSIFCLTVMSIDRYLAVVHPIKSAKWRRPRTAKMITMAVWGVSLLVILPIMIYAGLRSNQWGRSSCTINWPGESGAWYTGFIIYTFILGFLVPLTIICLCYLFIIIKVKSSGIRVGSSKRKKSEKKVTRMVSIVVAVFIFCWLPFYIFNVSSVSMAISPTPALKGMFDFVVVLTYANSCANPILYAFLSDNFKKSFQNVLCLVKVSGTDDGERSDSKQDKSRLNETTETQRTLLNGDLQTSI
Assay: PathHunter β-Arrestin assay, antagonist mode, SSTR2
Type: cell-based
Conditions: agonist challenge at EC80
Experimental: The PathHunter® β-Arrestin assay monitors the activation of a GPCR in a homogenous, non-imaging assay format using a technology developed by DiscoveRx called Enzyme Fragment Complementation (EFC) with β-galactosidase (β-Gal) as the functional reporter. […] EA is fused to β-Arrestin and […] is fused to the GPCR of interest. When the GPCR is activated and β-Arrestin is recruited to the receptor, ED and EA complementation occurs, restoring β-Gal activity which is measured using chemiluminescent PathHunter® Detection Reagents. For antagonist determination, cells were pre-incubated with the compounds followed by agonist challenge at the EC80 concentration. Data was normalized to the maximal and minimal response observed in the presence of EC80 ligand and vehicle. Compound activity was analyzed using CBIS data analysis suite ChemInnovation, CA). Percentage inhibition was calculated using the following formula: % Inhibition=100%×(1−(mean signal of test sample-mean signal of vehicle control)/(mean signal of EC80 control-mean signal of vehicle control)). Percentage inhibition was calculated at 10 concentrations in steps on a Log 3 scale ranging from […] to 5e-5 μM. The results were plotted for IC50 calculation.

Row | SMILES | IC50
1 | CNCCCC[C@@H]1NC(=O)[C@@H](Cc2ccc(C(N)=O)cc2)NC(=O)[C@H](Cc2ccc(O)cc2)NC(=O)[C@H](NC(=O)[C@H](Cc2ccc(Cl)cc2)NC(=O)CCC(=O)OC)CSSC[C@@H](C(=O)N[C@H](Cc2ccc(O)cc2)C(N)=O)NC(=O)[C@H]([C@@H](C)O)NC1=O [Compound 58, CH3O2C(CH2)2(CO)-Cpa-cyclo[D-Cys-Tyr-D-Phe(4-carbamoyl)-Lys(N^ε-Me)-Thr-Cys]-D-Tyr-NH2] (MeOSuc-[Phe(4-Cl)][dC]Y[dPhe(4-CONH2)][Lys(Me)]TC[dY]-NH2; disulfide 2-7) | 2.36 nM
2 | C[C@@H](O)[C@@H]1NC(=O)[C@H](CCCCN)NC(=O)[C@@H](Cc2ccc(C#N)cc2)NC(=O)[C@H](Cc2ccc(O)cc2)NC(=O)[C@H](NC(=O)[C@@H](N)Cc2ccc(Cl)cc2)CSSC[C@@H](C(=O)N[C@H](Cc2ccc(O)cc2)C(N)=O)NC1=O [Compound 59, H-Cpa-[DCys- Tyr-DPhe(4-CN)- Lys-Thr-Cys]- DTyr-NH2] (H-[Phe(4-Cl)][dC]Y[dPhe(4-CN)]KTC[dY]-NH2; disulfide 2-7) | 39.1 nM
3 | CC(O)[C@@H]1NC(=O)[C@H](CCCCN)NC(=O)[C@@H](Cc2ccc(C(N)=O)cc2)NC(=O)[C@H](Cc2ccc(O)cc2)NC(=O)[C@H](NC(=O)[C@@H](N)Cc2ccc(Cl)cc2)CNC(=O)SC[C@@H](C(=O)N[C@H](Cc2ccc(O)cc2)C(N)=O)NC1=O (stereo partly drawn) [Compound 60, H-Cpa-cyclo [DDap-Tyr- DPhe(4-CONH2)- Lys-Thr-Cys]- DTyr-NH2] | > 1000 nM
4 | CC(O)[C@@H]1NC(=O)[C@H](CCCCN)NC(=O)[C@@H](Cc2ccc(C(N)=O)cc2)NC(=O)[C@H](Cc2ccc(O)cc2)NC(=O)[C@H](NC(=O)[C@@H](N)Cc2ccc(Cl)cc2)CSC(=O)NC[C@@H](C(=O)N[C@H](Cc2ccc(O)cc2)C(N)=O)NC1=O (stereo partly drawn) [Compound 62, H-Cpa-cyclo[DCys- Tyr-DPhe(4- CONH2)- Lys-Thr-Dap]- DTyr-NH2] (H-[Phe(4-Cl)][dC]Y[dPhe(4-CONH2)]K[Thr(3ξ)][Dap][dY]-NH2; linker 2-7 via CO) | > 1000 nM
5 | CNCCCC[C@@H]1NC(=O)[C@@H](Cc2ccc(C(N)=O)cc2)NC(=O)[C@H](Cc2ccc(O)cc2)NC(=O)[C@H](NC(=O)[C@@H](N)Cc2ccc(Cl)cc2)CSC(=O)NC[C@@H](C(=O)N[C@H](Cc2ccc(O)cc2)C(N)=O)NC(=O)[C@H](C(C)O)NC1=O (stereo partly drawn) [Compound 63, H-Cpa-cyclo [DCys-Tyr-DPhe (4-CONH2)- Lys(Me)-Thr-Dap]- DTyr-NH2] (H-[Phe(4-Cl)][dC]Y[dPhe(4-CONH2)][Lys(Me)][Thr(3ξ)][Dap][dY]-NH2; linker 2-7 via CO) | > 1000 nM
6 | C[C@@H](O)[C@@H]1NC(=O)[C@H](CCCCN)NC(=O)[C@@H](Cc2ccc(C(N)=O)cc2)NC(=O)[C@H](Cc2ccc(O)cc2)NC(=O)[C@H](NC(=O)[C@@H](N)Cc2ccc(Cl)cc2)Cn2cc(nn2)C[C@@H](C(=O)N[C@H](Cc2ccc(O)cc2)C(N)=O)NC1=O [Compound 64] (H-[Phe(4-Cl)][dDap(N3)]Y[dPhe(4-CONH2)]KT[Pra][dY]-NH2; triazole 2-7) | > 1000 nM
7 | C[C@@H](O)[C@@H]1NC(=O)[C@H](CCCCN)NC(=O)[C@@H](Cc2ccc(C(N)=O)cc2)NC(=O)[C@H](Cc2ccc(O)cc2)NC(=O)[C@@H](NC(=O)[C@@H](N)Cc2ccc(Cl)cc2)Cc2cn(nn2)C[C@@H](C(=O)N[C@H](Cc2ccc(O)cc2)C(N)=O)NC1=O [Compound 65] (H-[Phe(4-Cl)][Pra]Y[dPhe(4-CONH2)]KT[Dap(N3)][dY]-NH2; triazole 2-7) | 688 nM
8 | C[C@@H](O)[C@@H]1NC(=O)[C@H](CCCCN)NC(=O)[C@@H](Cc2ccc(C(N)=O)cc2)NC(=O)[C@H](Cc2ccc(O)cc2)NC(=O)[C@H](NC(=O)[C@@H](N)Cc2ccc(Cl)cc2)Cc2cn(nn2)C[C@@H](C(=O)N[C@H](Cc2ccc(O)cc2)C(N)=O)NC1=O [Compound 66] (H-[Phe(4-Cl)][dPra]Y[dPhe(4-CONH2)]KT[Dap(N3)][dY]-NH2; triazole 2-7) | > 1000 nM
9 | C[C@@H](O)[C@@H]1NC(=O)[C@H](CCCCN)NC(=O)[C@@H](Cc2ccc(C(N)=O)cc2)NC(=O)[C@H](Cc2ccc(O)cc2)NC(=O)[C@H](NC(=O)[C@@H](N)Cc2ccc(Cl)cc2)CC=CC[C@@H](C(=O)N[C@H](Cc2ccc(O)cc2)C(N)=O)NC1=O [Compound 67] | > 1000 nM
10 | C[C@@H](O)[C@@H]1NC(=O)[C@H](CCCCN)NC(=O)[C@@H](Cc2ccc(C(N)=O)cc2)NC(=O)[C@H](Cc2ccc(O)cc2)NC(=O)[C@H](NC(=O)[C@@H](N)Cc2ccc(Cl)cc2)CNC(=O)C[C@@H](C(=O)N[C@H](Cc2ccc(O)cc2)C(N)=O)NC1=O [Compound 69, H-Cpa-cyclo [DDap-Tyr- DPhe(4-CONH2)- Lys-Thr-Asp]- DTyr-NH2] (H-[Phe(4-Cl)][dDap]Y[dPhe(4-CONH2)]KTD[dY]-NH2; lactam 2-7) | > 1000 nM
11 | C[C@@H](O)[C@@H]1NC(=O)[C@H](CCCCN)NC(=O)[C@@H](Cc2ccc(NC(=O)Nc3ccccc3)cc2)NC(=O)[C@H](Cc2ccc(O)cc2)NC(=O)[C@H](NC(=O)[C@@H](N)Cc2ccc(Cl)cc2)CNC(=O)C[C@@H](C(=O)N[C@H](Cc2ccc(O)cc2)C(N)=O)NC1=O [Compound 70] (H-[Phe(4-Cl)][dDap]Y[dPhe(4-NH2)]([CO-NHPh])KTD[dY]-NH2; lactam 2-7) | > 1000 nM
12 | CNCCCC[C@@H]1NC(=O)[C@@H](Cc2ccc(C(N)=O)cc2)NC(=O)[C@H](Cc2ccc(O)cc2)NC(=O)[C@H](NC(=O)[C@@H](N)Cc2ccc(Cl)cc2)CNC(=O)C[C@@H](C(=O)N[C@H](Cc2ccc(O)cc2)C(N)=O)NC(=O)[C@H]([C@@H](C)O)NC1=O [Compound 71, H-Cpa-cyclo [DDap-Tyr- DPhe(4-CONH2)- Lys(Me)-Thr- Asp]-DTyr-NH2] (H-[Phe(4-Cl)][dDap]Y[dPhe(4-CONH2)][Lys(Me)]TD[dY]-NH2; lactam 2-7) | 13.3 nM
13 | C[C@@H](O)[C@@H]1NC(=O)[C@H](CCCCN)N(C)C(=O)[C@@H](Cc2ccc(C(N)=O)cc2)NC(=O)[C@H](Cc2ccc(O)cc2)NC(=O)[C@H](NC(=O)[C@@H](N)Cc2ccc(Cl)cc2)CSSC[C@@H](C(=O)N[C@H](Cc2ccc(O)cc2)C(N)=O)NC1=O [Compound 72, H-Cpa-cyclo[DCys- Tyr-D-(4- carbamoyl)Phe- (N-alpha-Me)Lys- Thr-Cys]- DTyr-NH2] (H-[Phe(4-Cl)][dC]Y[dPhe(4-CONH2)][NMeK]TC[dY]-NH2; disulfide 2-7) | 5.77 nM
14 | C[C@@H](O)[C@H]1C(=O)N[C@H](C(=O)N[C@H](Cc2ccc(O)cc2)C(N)=O)CSSC[C@@H](NC(=O)[C@@H](N)Cc2ccc(Cl)cc2)C(=O)N[C@@H](Cc2ccc(O)cc2)C(=O)N[C@H](Cc2ccc(C(N)=O)cc2)C(=O)N[C@@H](CCCCN)C(=O)N1C [Compound 73, H-Cpa-[DCys-Tyr- DPhe(4-carbamoyl)- Lys-NMeThr- Cys]-DTyr-NH2] (H-[Phe(4-Cl)][dC]Y[dPhe(4-CONH2)]K[NMeT]C[dY]-NH2; disulfide 2-7) | 547 nM
15 | C[C@@H](O)[C@@H]1NC(=O)[C@H](CCCCN)NC(=O)[C@@H](Cc2ccc(C(N)=O)cc2)NC(=O)[C@H](Cc2ccc(O)cc2)N(C)C(=O)[C@H](NC(=O)[C@@H](N)Cc2ccc(Cl)cc2)CSSC[C@@H](C(=O)N[C@H](Cc2ccc(O)cc2)C(N)=O)NC1=O [Compound 74, H-Cpa-[DCys- NMeTyr-DPhe (4-carbamoyl)- Lys-Thr-Cys]- DTyr-NH2] (H-[Phe(4-Cl)][dC][NMeY][dPhe(4-CONH2)]KTC[dY]-NH2; disulfide 2-7) | 159 nM
